Laboratory results: patent US20260078120A1, “SUBSTITUTED PYRIDOPYRIMIDINONES” (MIRATI THERAPEUTICS, INC., priority 2022, published 2026)
Like-named read-outs stand apart in the source and are kept apart here.

Experiments:
Type in all cases: cell-based
[1] = system: T47D (PI3Kα H1047R mutant) cells; assay: Inhibition of pAKT formation, alphaLISA SureFire Ultra AKT 1/2/3 (pS473), T47D cells; conditions: T47D (PI3Kα H1047R mutant) cells, inhibition of pAKT (pS473) formation, approximately one hour or 24 hours treatment, read-out: T47D pAKT (H1047R mutant) IC50
Method in brief: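 T47D cells (12,000/well) in HBSS were dosed with compound at 10 concentrations (10.4 μM top, 1:4 dilutions) for about 1 h or 24 h at 37 °C, then lysed. pS473 AKT was read by alphaLISA. Signals were normalized to alpelisib and DMSO controls, and IC50 came from a four-parameter fit.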

[2] = system: T47D (PI3Kα H1047R mutant) cells; assay: CellTiter-Glo 2.0 luminescent cell viability assay, 72 hours, T47D cells; conditions: T47D (PI3Kα H1047R mutant) cells, CellTiter-Glo, approximately 72 hours, read-out: T47D (H1047R mutant) Viability IC50
Method in brief: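 Cells seeded at 1000 per well overnight were dosed with a 10-concentration, 1:4 series starting at 10 µM and incubated ~72 h at 37° C. Viability was read by CellTiter-Glo 2.0 luminescence after 30 min at room temperature. IC50 came from four-parameter fits of percent vehicle control.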

[3] = system: SKBR3 (PI3Kα wild type) cells; assay: CellTiter-Glo 2.0 luminescent cell viability assay, 72 hours, SKBR3 cells; conditions: SKBR3 (PI3Kα wild type) cells, CellTiter-Glo, approximately 72 hours, read-out: SKBR3 (WT) Viability IC50
Method in brief: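 Viability measured via CTG luminescence following roughly 72 hours of compound exposure at 37° C. Dosing used a 10 um starting concentration diluted 1:4 over 10 points; percent-of-vehicle data fitted with a variable-slope four-parameter model for IC50.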

Structure (SMILES) | IC50 ([1]; Homo sapiens, T47D) [µM] | IC50 ([2]; Homo sapiens, T47D, 72 h) [µM] | IC50 ([3]; Homo sapiens, SK-BR-3, 72 h) [µM] | IC50 [1] [µM] | IC50 [2] [µM] | IC50 [3] [µM]
Cc1cc([C@@H](C)Nc2ccccc2C(=O)O)c2nc(NCC3(C)CC3(F)F)c(C#N)c(=O)n2c1 (stereo partly drawn) [Example 10-60, 2-(((1R)-1-(3-cyano-2-(((2,2-difluoro-1-methylcyclopropyl)methyl)amino)-7-methyl-4-oxo-4H-pyrido[1,2-a]pyrimidin-9-yl)ethyl)amino)benzoic acid] | 0.00262 | 0.0988 | > 10 | – | – | –
Cc1cc([C@@H](C)Nc2ccccc2C(=O)O)c2nc(N3CCN(c4nccs4)CC3)c(C)c(=O)n2c1 [Example 10-33, (R)-2-((1-(3,7-dimethyl-4-oxo-2-(4-(thiazol-2-yl)piperazin-1-yl)-4H-pyrido[1,2-a]pyrimidin-9-yl)ethyl)amino)benzoic acid] | 0.00219 | 0.0565 | > 10 | – | – | –
Cc1cc([C@@H](C)Nc2ccccc2C(=O)O)c2nc(N3CCN(c4cccnc4)CC3)c(C)c(=O)n2c1 [Example 10-38, (R)-2-((1-(3,7-dimethyl-4-oxo-2-(4-(pyridin-3-yl)piperazin-1-yl)-4H-pyrido[1,2-a]pyrimidin-9-yl)ethyl)amino)benzoic acid] | 0.00197 | 0.0579 | > 10 | – | – | –
Cc1cc([C@@H](C)Nc2ccccc2C(=O)O)c2nc(N3CCN(c4ccc(C#N)cc4)C[C@H]3C)c(C)c(=O)n2c1 [Example 10-42, 2-(((R)-1-(2-((R)-4-(4-cyanophenyl)-2-methylpiperazin-1-yl)-3,7-dimethyl-4-oxo-4H-pyrido[1,2-a]pyrimidin-9-yl)ethyl)amino)benzoic acid] | – | – | – | 0.00309 | 0.0615 | 9.87
CCc1cc([C@@H](C)Nc2ccccc2C(=O)O)c2nc(N3Cc4ccccc4C3)c(C#N)c(=O)n2c1 [Example 10-10, (R)-2-((1-(3-cyano-7-ethyl-2-(isoindolin-2-yl)-4-oxo-4H-pyrido[1,2-a]pyrimidin-9-yl)ethyl)amino)benzoic acid] | 0.00121 | – | – | – | 0.0293 | 7.45
Cc1cc([C@@H](C)Nc2ccccc2C(=O)O)c2nc(N3CCN(c4ccccc4)CC3C)c(C#N)c(=O)n2c1 (stereo partly drawn) [Example 10-57, 2-(((1R)-1-(3-cyano-7-methyl-2-(2-methyl-4-phenylpiperazin-1-yl)-4-oxo-4H-pyrido[1,2-a]pyrimidin-9-yl)ethyl)amino)benzoic acid] | 0.00517 | 0.0733 | > 10 | – | – | –
C[C@@H](Nc1ccccc1C(=O)O)c1cc(Cl)cn2c(=O)c(C#N)c(N3Cc4ccccc4C3)nc12 [Example 10-11, (R)-2-((1-(7-chloro-3-cyano-2-(isoindolin-2-yl)-4-oxo-4H-pyrido[1,2-a]pyrimidin-9-yl)ethyl)amino)benzoic acid] | 0.00171 | 0.0305 | 7.77 | – | – | –
Cc1cc([C@@H](C)Nc2ccccc2C(=O)O)c2nc(N3CCN(c4cc(C)no4)CC3)c(C)c(=O)n2c1 [Example 10-48, (R)-2-((1-(3,7-dimethyl-2-(4-(3-methylisoxazol-5-yl)piperazin-1-yl)-4-oxo-4H-pyrido[1,2-a]pyrimidin-9-yl)ethyl)amino)benzoic acid] | 0.00296 | 0.0663 | > 10 | – | – | –
Cc1cc([C@@H](C)Nc2ccccc2C(=O)O)c2nc(N3CCCC(F)(F)C3)c(C)c(=O)n2c1 [Example 10-18, (R)-2-((1-(2-(3,3-difluoropiperidin-1-yl)-3,7-dimethyl-4-oxo-4H-pyrido[1,2-a]pyrimidin-9-yl)ethyl)amino)benzoic acid] | 0.00201 | 0.0384 | > 10 | – | – | –
Cc1cc([C@@H](C)Nc2ccccc2C(=O)O)c2nc(N3CCN(c4ccc(C#N)c5cc(C#N)ccc45)CC3)c(C)c(=O)n2c1 [Example 10-35, (R)-2-((1-(2-(4-(4,6-dicyanonaphthalen-1-yl)piperazin-1-yl)-3,7-dimethyl-4-oxo-4H-pyrido[1,2-a]pyrimidin-9-yl)ethyl)amino)benzoic acid] | 0.00472 | 0.0567 | 7.95 | – | – | –
Cc1cc([C@@H](C)Nc2ccccc2C(=O)O)c2nc(N3Cc4cc(F)c(F)cc4C3)c(C#N)c(=O)n2c1 [Example 10-87, (R)-2-((1-(3-cyano-2-(5,6-difluoroisoindolin-2-yl)-7-methyl-4-oxo-4H-pyrido[1,2-a]pyrimidin-9-yl)ethyl)amino)benzoic acid] | 0.00223 | 0.0802 | > 10 | – | – | –
Cc1cc([C@@H](C)Nc2ccccc2C(=O)O)c2nc(N3CCC(F)(F)[C@@H]3C)c(C#N)c(=O)n2c1 [Example 10-31, 2-(((R)-1-(3-cyano-2-((S)-3,3-difluoro-2-methylpyrrolidin-1-yl)-7-methyl-4-oxo-4H-pyrido[1,2-a]pyrimidin-9-yl)ethyl)amino)benzoic acid] | 0.00639 | 0.0551 | > 10 | – | – | –
Cc1cc([C@@H](C)Nc2ccccc2C(=O)O)c2nc(N3Cc4ccccc4C3)c(C#N)c(=O)n2c1 [Example 10-43, (R)-2-((1-(3-cyano-2-(isoindolin-2-yl)-7-methyl-4-oxo-4H-pyrido[1,2-a]pyrimidin-9-yl)ethyl)amino)benzoic acid] | 0.00252 | 0.0622 | > 10 | – | – | –
COC1(C)CCN(c2nc3c([C@@H](C)Nc4ccccc4C(=O)O)cc(C)cn3c(=O)c2C)CC1 [Example 10-56, (R)-2-((1-(2-(4-methoxy-4-methylpiperidin-1-yl)-3,7-dimethyl-4-oxo-4H-pyrido[1,2-a]pyrimidin-9-yl)ethyl)amino)benzoic acid] | 0.00395 | 0.0732 | > 10 | – | – | –

Further lines, results first:

IC50 ([1]; Homo sapiens, T47D) [µM] | IC50 ([2]; Homo sapiens, T47D, 72 h) [µM] | IC50 ([3]; Homo sapiens, SK-BR-3, 72 h) [µM] | IC50 [1] [µM] | IC50 [2] [µM] | IC50 [3] [µM] | Structure (SMILES)
0.000905 | 0.0844 | > 10 | – | – | – | Cc1cc([C@@H](C)Nc2ccccc2C(=O)O)c2nc(N3CC[C@H]3C)c(C#N)c(=O)n2c1 (single isomer, unassigned) [Example 10-96]
0.00105 | 0.0941 | > 10 | – | – | – | Cc1cc([C@@H](C)Nc2ccccc2C(=O)O)c2nc(N3CCN(c4ccc(C#N)cc4)C(C)C3)c(C)c(=O)n2c1 (stereo partly drawn) [Example 10-110, 2-(((1R)-1-(2-(4-(4-cyanophenyl)-3-methylpiperazin-1-yl)-3,7-dimethyl-4-oxo-4H-pyrido[1,2-a]pyrimidin-9-yl)ethyl)amino)benzoic acid]
0.00171 | 0.0828 | > 10 | – | – | – | Cc1cc([C@@H](C)Nc2ccccc2C(=O)O)c2nc(N3Cc4ccc(F)cc4C3)c(C#N)c(=O)n2c1 [Example 10-92, (R)-2-((1-(3-cyano-2-(5-fluoroisoindolin-2-yl)-7-methyl-4-oxo-4H-pyrido[1,2-a]pyrimidin-9-yl)ethyl)amino)benzoic acid]
0.0043 | 0.0832 | > 10 | – | – | – | Cc1cc([C@@H](C)Nc2ccccc2C(=O)O)c2nc(N3CCN(c4ccc(F)cc4F)CC3)c(C)c(=O)n2c1 [Example 10-93, (R)-2-((1-(2-(4-(2,4-difluorophenyl)piperazin-1-yl)-3,7-dimethyl-4-oxo-4H-pyrido[1,2-a]pyrimidin-9-yl)ethyl)amino)benzoic acid]
0.00623 | 0.0967 | > 10 | – | – | – | Cc1cc([C@@H](C)Nc2ccccc2C(=O)O)c2nc(N3CCN(c4ncc(C#N)cn4)CC3)c(C#N)c(=O)n2c1 [Example 10-112, (R)-2-((1-(3-cyano-2-(4-(5-cyanopyrimidin-2-yl)piperazin-1-yl)-7-methyl-4-oxo-4H-pyrido[1,2-a]pyrimidin-9-yl)ethyl)amino)benzoic acid]
0.00205 | 0.0872 | 8.76 | – | – | – | Cc1cc([C@@H](C)Nc2ccccc2C(=O)O)c2nc(C3CCN(c4ccc(C#N)cc4)CC3)c(C#N)c(=O)n2c1 [Example 10-103, (R)-2-((1-(3-cyano-2-(1-(4-cyanophenyl)piperidin-4-yl)-7-methyl-4-oxo-4H-pyrido[1,2-a]pyrimidin-9-yl)ethyl)amino)benzoic acid]
0.00313 | 0.107 | > 10 | – | – | – | Cc1cc([C@@H](C)Nc2ccccc2C(=O)O)c2nc(N3CCN(CC(F)(F)F)CC3)c(C)c(=O)n2c1 [Example 10-125, (R)-2-((1-(3,7-dimethyl-4-oxo-2-(4-(2,2,2-trifluoroethyl)piperazin-1-yl)-4H-pyrido[1,2-a]pyrimidin-9-yl)ethyl)amino)benzoic acid]
0.00202 | 0.0836 | > 10 | – | – | – | Cc1cc([C@@H](C)Nc2ccccc2C(=O)O)c2nc(N3CCN(c4ccc(C#N)cc4F)CC3)c(C#N)c(=O)n2c1 [Example 10-94, (R)-2-((1-(3-cyano-2-(4-(4-cyano-2-fluorophenyl)piperazin-1-yl)-7-methyl-4-oxo-4H-pyrido[1,2-a]pyrimidin-9-yl)ethyl)amino)benzoic acid]
